The record followed here is PMC8748766, “The catalytic activity of TCPTP is auto-regulated by its intrinsically disordered tail and activated by Integrin alpha-1” (Nature Communications, 2022).

For experiment [1], the target named is T1, TCPTPCAT (Homo sapiens, UniProt P17706).
T1 construct: TCPTP and TCPTPCAT (residue 1–314) against 2 phosphotyrosine peptides derived from EGFR; His6 (N, cleaved yes); made in house; host or cells: E. coli BL21 (DE3) RIL
T1 sequence (P17706 1-314 isoform P17706-2): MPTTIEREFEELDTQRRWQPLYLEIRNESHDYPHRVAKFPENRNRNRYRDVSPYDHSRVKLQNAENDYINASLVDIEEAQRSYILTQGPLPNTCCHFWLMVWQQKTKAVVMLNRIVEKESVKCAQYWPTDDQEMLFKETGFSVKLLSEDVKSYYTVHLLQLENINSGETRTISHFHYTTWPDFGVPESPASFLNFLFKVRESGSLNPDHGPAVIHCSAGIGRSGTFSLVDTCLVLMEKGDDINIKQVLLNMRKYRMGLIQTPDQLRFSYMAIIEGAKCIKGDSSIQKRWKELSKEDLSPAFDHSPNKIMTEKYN
The experiment can be described thus: Kinetics of TCPTPCAT with saturating ITGA1 peptide, pEGFR peptide-1 substrate. Type of experiment: biochemical. To be noted: TCPTPCAT saturated with ITGA1 peptide (ITGA1_TR 1 μM), mean ± SE, n = 9. An excerpt: (§1) Polymerase chain reaction (PCR) fragments of TCPTP (residues: 1–387) TCPTPCAT (catalytic domain, residues: 1–288, 1–302 or 1–314), TCPTPTail (C-terminal tail, residues: 289–387 or 303–387) were amplified from full-length human TCPTP (TC45 isoform). TCPTP, TCPTPCAT (residues: 1–288, 1–314), and TCPTPTail (residues: 289–387) fragments were cloned into pMCSG7 including a N-terminal His6-tag using ligation-independent cloning. For all NMR experiments, the PCR fragments of TCPTP, TCPTPCAT (residues: 1–302) and TCPTPTail (residue: 303–387) were sub-cloned into pRP1B as previously described.
The rate of dephosphorylation of TCPTP and TCPTPCAT (residue 1–314) against 2 phosphotyrosine peptides derived from EGFR was monitored either with or without ITGA1 peptide (ITGA1_FCT & ITGA1_TR) in assay buffer (25 mM Hepes pH 7.4, 50 mM NaCl and 1 mM DTT). Lyophilized powder of all synthetic peptides was dissolved in assay buffer without DTT (phosphopeptides, 5 mM; ITGA1 peptides, 2 mM). For the kinetic analysis, the concentration of the enzyme was fixed at 1 nM while the substrate (phosphopeptides) concentration was varied from 2.5 μM to 160 μM in a total reaction volume of 200 μl. Effect of ITGA1 peptide on TCPTP & TCPTPCAT kinetics were assessed in saturated condition by adding an excess amount of ITGA1 peptide to the reaction mixture (ITGA1_TR = 1 μM; ITGA1_FCT = 25 μM). The reaction was incubated at 30 °C for 30 min and stopped by the addition of 30 μl phosphate reagent (phosphate colorimetric assay kit; Bio Vision) following the manufacturer’s instructions. Data were normalized and fitted using a nonlinear curve, and kinetics parameters (KM and kcat) were calculated from the Michaelis-Menten equation using Graph Pad Prism 9.0. All data points in the enzyme kinetics experiment were measured in triplicate, and the experiments were repeated three times.

The target in experiment [2] is T1, TCPTPCAT
The experiment in a line: NMR titration (2D HSQC/TROSY) binding to TCPTPCAT
To be noted: 2D [1H,15N] TROSY, unlabeled ligand added.
Text: as §1
NMR data were collected on either Bruker NEO 600 MHz or 800 MHz spectrometers equipped with TCI HCN z-gradient cryoprobes at 298 K or 283 K. NMR measurements of TCPTP’s variant construct were recorded using (^1H,^15N)-, (^2H,^15N)-, (^1H,^15N,^13C), or (^2H,^15N,^13C)-labeled protein at a final concentration of 0.6 mM for backbone assignment or 0.1 mM for titration in NMR buffer and 90% H2O/10% D2O. The sequence-specific backbone assignments of TCPTP (residues 1–387), TCPTPCAT (residues 1–302), TCPTPTail (residues 303–387) and other variants were achieved using 3D triple resonance experiments including […], 3D HNCA, 3D HN(CO)CA, 3D HN(CO)CACB, and 3D HNCACB either as HSQC or TROSY variations. All NMR data were processed using TopSpin 4.0.5[44] and analyzed using either CARA (http://www.cara.nmr.ch) and/or CcpNMR[45].

Experiment [3] addresses T2, TCPTP (Homo sapiens, UniProt P17706).
T2 construct: fragments of TCPTP (residues: 1–387); His6 (N, cleaved yes); made in house; host or cells: E. coli BL21 (DE3) RIL
T2 sequence (P17706 1-387 isoform P17706-2): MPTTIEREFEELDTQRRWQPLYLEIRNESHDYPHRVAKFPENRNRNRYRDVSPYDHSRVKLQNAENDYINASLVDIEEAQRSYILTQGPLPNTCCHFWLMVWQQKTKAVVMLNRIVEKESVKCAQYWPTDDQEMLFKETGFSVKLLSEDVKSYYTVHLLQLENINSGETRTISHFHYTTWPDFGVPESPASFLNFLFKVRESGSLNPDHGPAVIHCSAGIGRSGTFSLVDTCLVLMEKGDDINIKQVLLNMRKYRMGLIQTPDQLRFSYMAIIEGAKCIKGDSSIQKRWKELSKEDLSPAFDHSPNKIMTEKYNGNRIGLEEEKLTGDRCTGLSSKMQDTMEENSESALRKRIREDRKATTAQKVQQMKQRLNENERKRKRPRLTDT
The experiment in a line: EC50 assay: TCPTP activation by ITGA1 peptides (pEGFR peptide-1 dephosphorylation). Type of experiment: biochemical. The settings on record: 1 nM TCPTP, 50 μM pEGFR peptide-1, pH 7.4, 30 °C 30 min, n = 3.
Text: as §1
To determine the EC50, synthesized ITGA1 peptides (ITGA1_FCT, ITGA1_TCT and ITGA1_TR) were mixed with TCPTP, and phosphatase activity was measured using the phospho-EGFR peptides (pEGFR peptide-1) as substrate. Lyophilized powder of all peptides was dissolved in 25 mM Hepes pH 7.4, 50 mM NaCl. For the assay, the TCPTP concentration was fixed at 1 nM and substrate phospho-peptide at 50 μM. […] The absorbance of the reaction mixture was measured at 650 nm, which was converted to the amount of phosphate produced in reaction based on the standard curve generated from the known phosphate concentration. Data obtained from the reaction was fitted using nonlinear regression mode and EC50 values were calculated based on the equation function “Log(agonist) vs. response-variable slope” using Graph Pad Prism 9.0.

In general, kcat refers to the number of substrate molecules converted per active site and unit of time at saturation. In general, Km refers to the concentration of substrate that gives half-maximal velocity. By kcat/Km is commonly meant the second-order rate constant that governs catalysis at low substrate concentration. Turning to “RPLKKKMEKRPLKKKMEK [ITGA1_TR, ITGA1 tandem repeat (2x ITGA1_TCT): …]”, the kcat in experiment [1] (pEGFR peptide-1, 1 nM enzyme, pH 7.4, 30 °C 30 min) stood at 31.1 ± 0.7 s⁻¹. Further, the Km in experiment [1] (pEGFR peptide-1, pH 7.4, 30 °C) stood at 23 ± 1.6 µM. For the same sequence, the kcat/Km in experiment [1] (pEGFR peptide-1) amounted to 1.3 ± 0.1 µM⁻¹ s⁻¹. Also, the “NMR titration: CSPs in (2H,15N)-labeled TCPTPCAT” value in experiment [2] is “significant CSPs in the same residues”. In addition, the “activation in EC50 assays (rank)” value in experiment [3] is on record as “strongest activation”.
